Measurements published in US11731985B2, “Compositions and methods for treating cancer” (Hb Therapeutics Inc., priority 2018, dated 2023).
pIC50: −log10 of the molar value.

Experiments:
LN229 cells = experiment: Cell viability assay, LN229 cells; assay type: cell-based, human; settings: Homo sapiens, LN-229, LN229 cells, read-out: Inhibition of Cancer Cell Growth (IC50)
Description: Each of the compounds was used to treat the cancer LN229 cells and examined first by western and dot blot assays for the degradation of SUMO1 protein and then by cell viability assay for the IC50 values of anticancer activity.
(§1) LN229 cell were treated with a series of dilutions of CPD1 and examined by cell viability assay for cell growth inhibition (FIG. 2B). […] Therefore, CPD1 acts as the degrader of SUMO1 protein and inhibitor of SUMO1 conjugation in cancer cells.

SUMO1 [1] = experiment: Ubiquitination of Flag-SUMO1 (immunoprecipitation, western blot) in co-transfected LN229 cells; assay type: cell-based, human; settings: LN229 cells co-transfected with Flag-SUMO1-GV and HA-UB-WT
From the text: (§2) The non-conjugated Flag-tagged SUMO1 (Flag-SUMO1-GV) and the HA-tagged wild type (WT) UB (HA-UB-WT) were co-transfected in LN229 cells.

[2] = system: NCI-60 panel cancer cell lines; experiment: Cell growth analysis of NCI-60 panel cancer cell lines; assay type: cell-based, human; settings: FIG. 5C
colon HCT116 xenografts = experiment: Subcutaneous xenografts of colon HCT116 cancer cell line in nude mice; assay type: in vivo
Description: (§3) For the therapeutic effects of the compounds, we examined the effects of CPD1 and CPD24 on various types of cancer xenografts in mice. […] NOD/SCID mice bearing intracranial brain xenografts of glioblastoma LN229 cell line were treated with CPD1.

lung A549 xenografts = experiment: Subcutaneous xenografts of lung A549 cancer cell line in nude mice; assay type: in vivo
Description: as §3

[3] = system: intracranial glioblastoma LN229 xenografts; experiment: Intracranial brain xenografts of glioblastoma LN229 in NOD/SCID mice, Kaplan Meier survival; assay type: in vivo; settings: intracranial LN229, log rank test
Description: as §3

[4] = system: colon cancer PDX (L1206F); experiment: Patient derived xenograft of colon cancer (L1206F); assay type: in vivo, mice
From the text: (§4) The left two graphs show data for compounds CPD1 and the middle two graphs show data for CPD24 treatment of colon cancer PDX (L1206F). […] The right two graphs show data for compound CPD1 and CPD24 treatment of lung cancer PDX (L1102F). […] The significance of **P<0.01, and ***P<0.001 was statistically analyzed.
as §3

lung cancer PDX (L1102F) = experiment: Patient derived xenograft of lung cancer (L1102F); assay type: in vivo, mice
From the text: as §4, §3

[5] = Tolerability across all xenograft mice; assay type: in vivo; settings: over the treatment period
Description: as §3

log P = assay type: physicochemical
From the text: (§5) For example, without limitation, pharmaceutical compositions of this compound (CPD1) can comprise a molecular weight 348 g/mol and the log P value 3.7.

[6] = Pharmacokinetics, tissue distribution and toxicity in mice, intraperitoneal administration; assay type: in vivo
From the text: as §5

SUMO1 [7] = molecular target: SUMO1 (Homo sapiens, UniProt P63165); experiment: Western and dot blot assays for SUMO1 conjugation and SUMO1 protein levels in LN229 cells; assay type: cell-based; set-up: analyzed by western blotting for detection of the conjugate and free form of SUMO1 protein and dot blotting for total levels of SUMO1 protein; endogenous in cells; host or cells: LN229 glioblastoma cells; settings: LN229 cells
SUMO1 (Homo sapiens, UniProt P63165), sequence (P63165 1-97 limits assumed): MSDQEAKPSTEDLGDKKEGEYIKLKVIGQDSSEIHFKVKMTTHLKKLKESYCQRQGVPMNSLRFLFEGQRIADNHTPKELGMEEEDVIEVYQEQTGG
Description: FIG. 2A illustrates how the glioblastoma LN229 cell line was treated with each of compounds of the National Cancer Institute (NCI) Diversity Set IV library and analyzed by western blot assays using SUMO1, SUMO2/3, UB and β-actin antibodies.
as §1, §2

SMILES: O=C(Nc1ccc(Cl)c([N+](=O)[O-])c1)Nc1nc2ccccc2s1 [Compound 1]
- pIC50 (LN229 cells): ≥ 5.30
- poly-ubiquitination of SUMO1 protein (SUMO1 [1]): results in the poly-ubiquitination of SUMO1 protein
- cell growth of NCI-60 panel cancer cell lines [2]: significantly inhibits the cell growth of breast, colon, lung, kidney, ovarian, prostate, skin (melanocytic) and blood (leukemic) cancers
- xenograft progression (colon HCT116 xenografts): significantly suppressed xenograft progression
- xenograft progression (lung A549 xenografts): significantly suppressed xenograft progression
- survival of xenograft mice [3]: increases the survival of xenograft mice
- body weight of mice [4]: had no effects on the body weight of mice
- tumor growth (tumor sizes) [4]: significantly inhibits the tumor growth of the colon cancer PDXs
- mouse body weight (lung cancer PDX (L1102F)): no effects of the treatment on mouse body weight
- PDX growth (lung cancer PDX (L1102F); CPD24 25 and 50 mg/kg, CPD1 100 mg/kg): markedly inhibits the PDX growth
- tolerability, clinical signs [5]: well tolerated over the treatment period with no clinical signs of lethargy, ataxia, paralysis, seizure or weight loss
- logP (log P): 3.7
- blood brain barrier crossing ([6]; distribution in brain tumors): can cross the blood brain barrier
- toxicity to normal tissues, side effects ([6]; mice, intraperitoneal administration): no toxicity to normal tissues or side effects on mice
- pharmacokinetics and tissue distribution ([6]; mouse cancer xenografts, intraperitoneal administration): sufficient for degrading SUMO1 protein in mouse cancer xenografts
- conjugated, free form and total levels of SUMO1 protein (SUMO1 [7]; western and dot blotting): reduces the conjugated, free form and total levels of SUMO1 proteins
- selectivity of inhibition of conjugation (SUMO1, SUMO2/3, UB) (SUMO1 [7]; western blot, FIG. 2A): selectively inhibiting the conjugation of SUMO1 but not SUMO2/3 or UB
